The target in experiment [1] is T1, GPR17 (Homo sapiens, UniProt Q13304). The experiment can be described thus: cAMP accumulation functional assay (HTRF, Schild analysis). Conditions: CHO hGPR17 cells, Schild analysis vs MDL29,951, 5 μM forskolin, read-out: cAMP assay pA2 (converted). The experiment is classed as cell-based. Also noted: host or cells: Flp-In T-REx CHO. In outline: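 Antagonist affinity (pA2) came from Schild plots of dose ratios, based on MDL29,951 concentration-response curves fitted by 4-parameter logistic. The read-out was HTRF cAMP in 5,000 doxycycline-induced CHO hGPR17 cells per well, with 30 min compound preincubation and 60 min stimulation, at room temperature in pH 7.4 buffer.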
(cAMP levels reflect the balance of adenylyl cyclase and phosphodiesterase activity.)

The target in experiment [2] is T1, GPR17. The experiment is described as follows: Calcium mobilization functional assay (GPR17 Ca2+ assay). Details: host or cells: Flp-In T-REx CHO. Conditions: CHO hGPR17 cells, inhibition of 50 nM MDL29,951, Calcium 5 dye, FLIPR; read-out: Ca2+ assay pIC50 (converted). Format: cell-based. The procedure, abridged: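 pIC50 values were fitted with a 4-parameter logistic curve. They reflect test-compound inhibition of cytosolic Ca2+ release evoked by 50 nM MDL29,951, tracked as Calcium 5 fluorescence at room temperature. Cells were CHO Flp-In T-REx stably carrying human GPR17, induced with doxycycline 1 μg/mL for 16-20 h.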

26 molecules from patent US12071404B2, “Aza (indole)-, benzothiophene-, and benzofuran-3-sulfonamides” (UCB Pharma GmbH, priority 2016, dated 2024) can be followed below.

T1 sequence (Q13304 whole entry): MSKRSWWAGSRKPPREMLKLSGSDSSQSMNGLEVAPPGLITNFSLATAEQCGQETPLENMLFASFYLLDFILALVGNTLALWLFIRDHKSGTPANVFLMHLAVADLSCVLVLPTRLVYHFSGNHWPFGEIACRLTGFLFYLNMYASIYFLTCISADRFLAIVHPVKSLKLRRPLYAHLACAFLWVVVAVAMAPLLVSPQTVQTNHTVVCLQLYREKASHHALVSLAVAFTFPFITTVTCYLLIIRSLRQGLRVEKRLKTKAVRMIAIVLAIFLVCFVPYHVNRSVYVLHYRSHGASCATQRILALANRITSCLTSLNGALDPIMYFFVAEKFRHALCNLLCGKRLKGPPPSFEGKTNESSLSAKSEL

As to `O=S(=O)(Nc1cc(F)c(Cl)cc1F)c1c[nH]c2cc(Br)cc(F)c12` [Compound I-251, 6-bromo-N-(4-chloro-2,5-difluorophenyl)-4-fluoro-1H-indole-3-sulfonamide], the Kb on GPR17 [1] is 3.16 to 31.6 nM. For the same molecule, the IC50 on GPR17 [2] was 3.16 to 31.6 nM.
For the molecule `CS(=O)(=O)c1c(Cl)ccc2c(S(=O)(=O)Nc3cc(F)c(Cl)cc3F)c[nH]c12` [Compound I-261, 6-chloro-N-(4-chloro-2,5-difluorophenyl)-7-(methylsulfonyl)-1H-indole-3-sulfonamide], on GPR17 [1], the Kb was 3.16 to 31.6 nM. The IC50 at GPR17 [2] was 3.16 to 31.6 nM.
As for `N#Cc1ccc(NS(=O)(=O)c2c[nH]c3cc(N=[N+]=[N-])ccc23)c(F)c1` [Compound I-335, 6-azido-N-(4-cyano-2-fluorophenyl)-1H-indole-3-sulfonamide], the Kb on GPR17 [1] is 3.16 to 31.6 nM. Besides, the IC50 on GPR17 [2] is 3.16 to 31.6 nM.
In the case of `C#Cc1ccc(NS(=O)(=O)c2c[nH]c3nc(Br)ccc23)cc1` [Compound I-85, 6-bromo-N-(4-ethynylphenyl)-1H-pyrrolo[2,3-b]pyridine-3-sulfonamide], at GPR17 [1], the Kb is 3.16 to 31.6 nM. Besides, the IC50 on GPR17 [2] is 3.16 to 31.6 nM.
`COc1nc(NS(=O)(=O)c2c[nH]c3c(F)c(Cl)ccc23)c(F)cc1Cl` [Compound I-319, 6-chloro-N-(5-chloro-3-fluoro-6-methoxypyridin-2-yl)-7-fluoro-1H-indole-3-sulfonamide]: the Kb at GPR17 [1] was less than 3.16 nM. Further, the IC50 on GPR17 [2] was less than 3.16 nM.
Consider `C#Cc1ccc(NS(=O)(=O)c2c[nH]c3c2ccc2cccnc23)c(F)c1` [Compound I-306, N-(4-ethynyl-2-fluorophenyl)-1H-pyrrolo[3,2-h]quinoline-3-sulfonamide], for which the Kb on GPR17 [1] was less than 3.16 nM. Also, the IC50 on GPR17 [2] was 3.16 to 31.6 nM.
The like results for `N#Cc1ccc(NS(=O)(=O)c2c[nH]c3cc(OCC4CC4)ccc23)c(F)c1` [Compound I-220, N-(4-cyano-2-fluorophenyl)-6-(cyclopropylmethoxy)-1H-indole-3-sulfonamide] were, in that order, 3.16 to 31.6 nM and 3.16 to 31.6 nM.
On the same counts, the results for `N#Cc1ccc(NS(=O)(=O)c2c[nH]c3cc(-c4cccnc4)ccc23)c(F)c1` [Compound I-229, N-(4-cyano-2-fluorophenyl)-6-(pyridin-3-yl)-1H-indole-3-sulfonamide] are 3.16 to 31.6 nM and 3.16 to 31.6 nM.
With `O=S(=O)(Nc1cccc2nsnc12)c1c[nH]c2cc(F)ccc12` [Compound I-107, N-(2,1,3-benzothiadiazol-4-yl)-6-fluoro-1H-indole-3-sulfonamide], on GPR17 [1], the Kb is 3.16 to 31.6 nM. In addition, the IC50 on GPR17 [2] is 3.16 to 31.6 nM.
For `O=S(=O)(Nc1cccc2nsnc12)c1c[nH]c2ncc(I)cc12` [Compound I-98, N-(2,1,3-benzothiadiazol-4-yl)-5-iodo-1H-pyrrolo[2,3-b]pyridine-3-sulfonamide], at GPR17 [1], the Kb was 3.16 to 31.6 nM. In addition, the IC50 at GPR17 [2] is 3.16 to 31.6 nM.
As for `Cc1ccnc(NS(=O)(=O)c2c[nH]c3cc(Cl)ccc23)c1` [Compound I-59], on GPR17 [1], the Kb was more than 31.6 nM. For the same molecule, the IC50 on GPR17 [2] is more than 31.6 nM.
`N#Cc1ccc2c(S(=O)(=O)Nc3ccc(Cl)cc3F)c[nH]c2c1` [Compound I-76, N-(4-chloro-2-fluorophenyl)-6-cyano-1H-indole-3-sulfonamide]: on GPR17 [1], the Kb is more than 31.6 nM. Besides, on GPR17 [2], the IC50 was more than 31.6 nM.
`N#Cc1ccc(NS(=O)(=O)c2c[nH]c3cc(Br)ccc23)cc1` [Compound I-134, 6-bromo-N-(4-cyanophenyl)-1H-indole-3-sulfonamide]: the Kb on GPR17 [1] is less than 3.16 nM. Besides, the IC50 on GPR17 [2] was less than 3.16 nM.
`COc1ccc2c(S(=O)(=O)Nc3cc(F)c(C#N)cc3F)c[nH]c2c1` [Compound I-291, N-(4-cyano-2,5-difluorophenyl)-6-methoxy-1H-indole-3-sulfonamide]: at GPR17 [1], the Kb was less than 3.16 nM. For the same molecule, the IC50 at GPR17 [2] is less than 3.16 nM.
Turning to `O=S(=O)(Nc1ccc(I)cc1F)c1c[nH]c2nc(Cl)ccc12` [Compound I-94, 6-chloro-N-(2-fluoro-4-iodophenyl)-1H-pyrrolo[2,3-b]pyridine-3-sulfonamide], at GPR17 [1], the Kb was 3.16 to 31.6 nM. Moreover, on GPR17 [2], the IC50 is 3.16 to 31.6 nM.
As for `CC1OC(=O)c2cc(NS(=O)(=O)c3c[nH]c4cc(Cl)ccc34)c(F)cc21` (stereo not shown) [Compound I-327, 6-chloro-N-(6-fluoro-1-methyl-3-oxo-1,3-dihydro-2-benzofuran-5-yl)-1H-indole-3-sulfonamide], at GPR17 [1], the Kb is less than 3.16 nM. On GPR17 [2], the IC50 was less than 3.16 nM.
Regarding `N#Cc1ccc(NS(=O)(=O)c2c[nH]c3cc(F)ccc23)c(F)c1` [Compound I-113, N-(4-cyano-2-fluorophenyl)-6-fluoro-1H-indole-3-sulfonamide], the Kb on GPR17 [1] was more than 31.6 nM. Further, on GPR17 [2], the IC50 is 3.16 to 31.6 nM.
On the same counts, the results for `O=S(=O)(Nc1cc(F)c(F)cc1F)c1c[nH]c2nc(Cl)ccc12` [Compound I-223, 6-chloro-N-(2,4,5-trifluorophenyl)-1H-pyrrolo[2,3-b]pyridine-3-sulfonamide] are more than 31.6 nM and 3.16 to 31.6 nM.
On the same counts, the results for `O=S(=O)(Nc1ccc(Cl)cc1F)c1c[nH]c2c1ccc1cccnc12` [Compound I-65, N-(4-chloro-2-fluorophenyl)-1H-pyrrolo[3,2-h]quinoline-3-sulfonamide] are 3.16 to 31.6 nM and 3.16 to 31.6 nM.
The like results for `N#Cc1ccc(NS(=O)(=O)c2c[nH]c3ncc(I)cc23)cc1` [Compound I-79, N-(4-cyanophenyl)-5-iodo-1H-pyrrolo[2,3-b]pyridine-3-sulfonamide] were, in that order, more than 31.6 nM and 3.16 to 31.6 nM.
For `CS(=O)(=O)c1ccc2c(S(=O)(=O)Nc3cccc4c3OC(F)(F)O4)c[nH]c2c1` [Compound I-240, N-(2,2-difluoro-1,3-benzodioxol-4-yl)-6-methylsulfonyl-1H-indole-3-sulfonamide], the Kb on GPR17 [1] is more than 31.6 nM. Besides, the IC50 on GPR17 [2] was more than 31.6 nM.
In the case of `O=S(=O)(Nc1nc(F)c(Cl)cc1F)c1c[nH]c2c1ccc1cccnc12` [Compound I-316, N-(5-chloro-3,6-difluoropyridin-2-yl)-1H-pyrrolo[3,2-h]quinoline-3-sulfonamide], the Kb on GPR17 [1] was 3.16 to 31.6 nM. The IC50 on GPR17 [2] is 3.16 to 31.6 nM.
`O=S(=O)(Nc1ccc(I)cc1F)c1c[nH]c2cc(F)ccc12` [Compound I-49, 6-fluoro-N-(2-fluoro-4-iodophenyl)-1H-indole-3-sulfonamide]: the Kb at GPR17 [1] was 3.16 to 31.6 nM. In addition, the IC50 on GPR17 [2] was more than 31.6 nM.
On the same counts, the results for `O=S(=O)(Nc1ccc(F)cc1F)c1c[nH]c2nc(Br)ccc12` [Compound I-91, 6-bromo-N-(2,4-difluorophenyl)-1H-pyrrolo[2,3-b]pyridine-3-sulfonamide] are more than 31.6 nM and more than 31.6 nM.
Consider `O=S(=O)(Nc1cc(F)c(OC(F)F)cc1F)c1c[nH]c2cc(Cl)ccc12` [Compound I-267, 6-chloro-N-[4-(difluoromethoxy)-2,5-difluorophenyl]-1H-indole-3-sulfonamide], for which the Kb on GPR17 [1] was less than 3.16 nM. Further, the IC50 at GPR17 [2] is less than 3.16 nM.
Consider `C#Cc1ccc(NS(=O)(=O)c2c[nH]c3nc(OC)ccc23)c(F)c1` [Compound I-283, N-(4-ethynyl-2-fluorophenyl)-6-methoxy-1H-pyrrolo[2,3-b]pyridine-3-sulfonamide], for which, on GPR17 [1], the Kb was 3.16 to 31.6 nM. In addition, the IC50 at GPR17 [2] is 3.16 to 31.6 nM.
